In US20240398805A1, “QUINAZOLINE DERIVED COMPOUNDS AS EGFR INHIBITORS AND THEIR USES THEREOF” (ACCUTAR BIOTECHNOLOGY INC., priority 2021, published 2024):

Key:
Type in all cases: cell-based
HCC827 cells = assay: Cell growth inhibition (CellTiter-Glo, 3 days) in HCC827; conditions: Homo sapiens, 72 h, 3 days after administration
Procedure, shortened: (§1)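 HCC827 cells in RPMI/10% FBS and A431 cells in DMEM/10% FBS were seeded at 5000 cells/well and left overnight. Compound was then added over a concentration range for 3 days of incubation, and viability was read by CellTiter-Glo luminescence.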

[1] = system: HCC827-SVD cells (human EGFR exon 20 insertion mutant D770_N771 insSVD); assay: Cell growth inhibition (CellTiter-Glo, 3 days) in HCC827-SVD; conditions: 72 h, 3 days after administration
Procedure, shortened: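 HCC827 cells carrying lentiviral codon-optimized EGFR D770_N771 insSVD, with endogenous EGFR knocked out by CRISPR (single clone), seeded at 5000 cells/well in RPMI with 10% FBS. Viability read by CellTiter-Glo luminescence.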

[2] = system: HCC827-ASV cells (human EGFR exon 20 insertion mutant A769_D770insASV); assay: Cell growth inhibition (CellTiter-Glo, 3 days) in HCC827-ASV; conditions: 72 h, 3 days after administration
Procedure, shortened: (§2)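 Growth inhibition used a CellTiter-Glo luminescence read-out after 3 days of compound exposure at various concentrations. Cells were plated the day before at 5000/well in RPMI plus 10% FBS. The lines are HCC827 transduced by lentivirus with codon-optimized EGFR ASV or ERBB2 YVMA exon 20 insertions.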

[3] = system: HCC827-YVMA cells (human ERBB2 exon20 insertion mutant A775_G776ins YVMA); assay: Cell growth inhibition (CellTiter-Glo, 3 days) in HCC827-YVMA; conditions: 72 h, 3 days after administration
Procedure, shortened: as §2

A431 cells = assay: Cell growth inhibition (CellTiter-Glo, 3 days) in A431; conditions: Homo sapiens, A-431, 72 h, 3 days after administration
Procedure, shortened: as §1

Row | SMILES | GI50 (HCC827 cells) [nM] | GI50 [1] [nM] | GI50 [2] [nM] | GI50 [3] [nM] | GI50 (A431 cells) [nM]
1 | C=CC(=O)N1CCC(Nc2cc3c(Nc4ccc(Oc5ccnc(-c6cncs6)c5)cc4F)ncnc3cc2OC)CC1 [Example 42, 1-(4-((4-((2-fluoro-4-((2-(thiazol-5-yl)pyridin-4-yl)oxy)phenyl)amino)-7-methoxyquinazolin-6-yl)amino)piperidin-1-yl)prop-2-en-1-one] | ≥ 1000 | 600 to 1000 | 300 to 600 | 600 to 1000 | ≥ 1000
2 | C=CC(=O)N1CCC(Nc2cc3c(Nc4ccc(Oc5ccnc(-c6nccs6)c5)cc4F)ncnc3cc2OC)CC1 [Example 43, 1-(4-((4-((2-fluoro-4-((2-(thiazol-2-yl)pyridin-4-yl)oxy)phenyl)amino)-7-methoxyquinazolin-6-yl)amino)piperidin-1-yl)prop-2-en-1-one] | 60 to 100 | < 30 | < 30 | < 30 | 300 to 600
3 | C=CC(=O)N1CCC(Nc2cc3c(Nc4ccc(Oc5ccnc(-c6ccn[nH]6)c5)cc4F)ncnc3cc2OC)CC1 [Example 45, 1-(4-((4-((4-((2-(1H-pyrazol-5-yl)pyridin-4-yl)oxy)-2-fluorophenyl)amino)-7-methoxyquinazolin-6-yl)amino)piperidin-1-yl)prop-2-en-1-one] | 100 to 300 | 60 to 100 | < 30 | 60 to 100 | 300 to 600
4 | C=CC(=O)N1CCC(Nc2cc3c(Nc4ccc(Oc5ccn(-c6ccnc(OC)n6)n5)cc4F)ncnc3cc2OC)CC1 [Example 47, 1-(4-((4-((2-fluoro-4-((1-(2-methoxypyrimidin-4-yl)-1H-pyrazol-3-yl)oxy)phenyl)amino)-7-methoxyquinazolin-6-yl)amino)piperidin-1-yl)prop-2-en-1-one] | 30 to 60 | 30 to 60 | < 30 | < 30 | 300 to 600
5 | C=CC(=O)N1CCC(Nc2cc3c(Nc4ccc(Oc5ccn(-c6ccc(N(C)C)nn6)n5)cc4F)ncnc3cc2OC)CC1 [Example 48, 1-(4-((4-((4-((1-(6-(dimethylamino)pyridazin-3-yl)-1H-pyrazol-3-yl)oxy)-2-fluorophenyl)amino)-7-methoxyquinazolin-6-yl)amino)piperidin-1-yl)prop-2-en-1-one] | 60 to 100 | 30 to 60 | 30 to 60 | 30 to 60 | 60 to 100
6 | C=CC(=O)N1CCC(Nc2cc3c(Nc4ccc(Oc5ccn(-c6ccc(OC)nn6)n5)cc4F)ncnc3cc2OC)CC1 [Example 50, 1-(4-((4-((2-fluoro-4-((1-(6-methoxypyridazin-3-yl)-1H-pyrazol-3-yl)oxy)phenyl)amino)-7-methoxyquinazolin-6-yl)amino)piperidin-1-yl)prop-2-en-1-one] | 60 to 100 | 30 to 60 | 30 to 60 | 30 to 60 | 100 to 300
7 | C=CC(=O)N1CCC(Nc2cc3c(Nc4ccc(Oc5nc(-c6cnc(OC)nc6)cs5)cc4F)ncnc3cc2OC)CC1 [Example 53, 1-(4-((4-((2-fluoro-4-((4-(2-methoxypyrimidin-5-yl)thiazol-2-yl)oxy)phenyl)amino)-7-methoxyquinazolin-6-yl)amino)piperidin-1-yl)prop-2-en-1-one] | 30 to 60 | < 30 | < 30 | < 30 | 100 to 300
8 | C=CC(=O)N1CCC(Nc2cc3c(Nc4ccc(Oc5ccn(-c6cnc(OC)nc6)n5)c(F)c4)ncnc3cc2OC)CC1 [Example 54, 1-(4-((4-((3-fluoro-4-((1-(2-methoxypyrimidin-5-yl)-1H-pyrazol-3-yl)oxy)phenyl)amino)-7-methoxyquinazolin-6-yl)amino)piperidin-1-yl)prop-2-en-1-one] | < 30 | < 30 | < 30 | < 30 | 100 to 300
9 | C=CC(=O)N1CCC(Nc2cc3c(Nc4ccc(Oc5nc(-c6ccc(OC)nc6)cs5)cc4F)ncnc3cc2OC)CC1 [Example 55, 1-(4-((4-((2-fluoro-4-((4-(6-methoxypyridin-3-yl)thiazol-2-yl)oxy)phenyl)amino)-7-methoxyquinazolin-6-yl)amino)piperidin-1-yl)prop-2-en-1-one] | < 30 | < 30 | < 30 | < 30 | 100 to 300
10 | C=CC(=O)N1CCC(Nc2cc3c(Nc4ccc(Oc5nc(-c6ccc(OC)nn6)cs5)cc4F)ncnc3cc2OC)CC1 [Example 56, 1-(4-((4-((2-fluoro-4-((4-(6-methoxypyridazin-3-yl)thiazol-2-yl)oxy)phenyl)amino)-7-methoxyquinazolin-6-yl)amino)piperidin-1-yl)prop-2-en-1-one] | 30 to 60 | < 30 | < 30 | < 30 | < 30
11 | C=CC(=O)N1CCC(Nc2cc3c(Nc4ccc(Oc5ccn(-c6cccc(OC)n6)n5)cc4F)ncnc3cc2OC)CC1 [Example 58, 1-(4-((4-((2-fluoro-4-((1-(6-methoxypyridin-2-yl)-1H-pyrazol-3-yl)oxy)phenyl)amino)-7-methoxyquinazolin-6-yl)amino)piperidin-1-yl)prop-2-en-1-one] | 60 to 100 | 60 to 100 | 60 to 100 | 60 to 100 | 300 to 600
12 | C=CC(=O)N1CCC(Nc2cc3c(Nc4ccc(Oc5ccn(-c6ccc(OC)cn6)n5)cc4F)ncnc3cc2OC)CC1 [Example 59, 1-(4-((4-((2-fluoro-4-((1-(5-methoxypyridin-2-yl)-1H-pyrazol-3-yl)oxy)phenyl)amino)-7-methoxyquinazolin-6-yl)amino)piperidin-1-yl)prop-2-en-1-one] | 60 to 100 | 60 to 100 | 30 to 60 | 30 to 60 | 100 to 300
13 | C=CC(=O)N1CCC(Nc2cc3c(Nc4ccc(Oc5ccn(-c6cnc(C)c(F)c6)n5)c(F)c4)ncnc3cc2OC)CC1 [Example 86, 1-(4-((4-((3-fluoro-4-((1-(5-fluoro-6-methylpyridin-3-yl)-1H-pyrazol-3-yl)oxy)phenyl)amino)-7-methoxyquinazolin-6-yl)amino)piperidin-1-yl)prop-2-en-1-one] | 30 to 60 | 30 to 60 | 60 to 100 | 30 to 60 | 60 to 100
14 | C=CC(=O)N1CCC(Nc2cc3c(Nc4ccc(Oc5ncc(-c6cnc(C)c(F)c6)s5)cc4F)ncnc3cc2OC)CC1 [Example 88, 1-(4-((4-((2-fluoro-4-((5-(5-fluoro-6-methylpyridin-3-yl)thiazol-2-yl)oxy)phenyl)amino)-7-methoxyquinazolin-6-yl)amino)piperidin-1-yl)prop-2-en-1-one] | 30 to 60 | 100 to 300 | 60 to 100 | 30 to 60 | ≥ 1000
15 | C=CC(=O)N1CCC(Nc2cc3c(Nc4ccc(Oc5ccn(-c6ccc(C)nc6F)n5)cc4F)ncnc3cc2OC)CC1 [Example 89, 1-(4-((4-((2-fluoro-4-((1-(2-fluoro-6-methylpyridin-3-yl)-1H-pyrazol-3-yl)oxy)phenyl)amino)-7-methoxyquinazolin-6-yl)amino)piperidin-1-yl)prop-2-en-1-one] | 30 to 60 | < 30 | < 30 | < 30 | 600 to 1000
16 | C=CC(=O)N1CCC(Nc2cc3c(Nc4ccc(Oc5ccn(-c6cnc(OC)c(F)c6)n5)cc4F)ncnc3cc2OC)CC1 [Example 90, 1-(4-((4-((2-fluoro-4-((1-(5-fluoro-6-methoxypyridin-3-yl)-1H-pyrazol-3-yl)oxy)phenyl)amino)-7-methoxyquinazolin-6-yl)amino)piperidin-1-yl)prop-2-en-1-one] | 60 to 100 | 60 to 100 | 100 to 300 | 60 to 100 | 100 to 300
17 | C=CC(=O)N1CCC(Nc2cc3c(Nc4ccc(Oc5ccn(-c6cnc7ccccc7c6)n5)cc4F)ncnc3cc2OC)CC1 [Example 91, 1-(4-((4-((2-fluoro-4-((1-(quinolin-3-yl)-1H-pyrazol-3-yl)oxy)phenyl)amino)-7-methoxyquinazolin-6-yl)amino)piperidin-1-yl)prop-2-en-1-one] | 100 to 300 | 30 to 60 | 60 to 100 | 100 to 300 | 100 to 300
18 | C=CC(=O)N1CCC(Nc2cc3c(Nc4ccc(Oc5ccn(-c6cnc(C)nc6)n5)cc4F)ncnc3cc2OC)CC1 [Example 92, 1-(4-((4-((2-fluoro-4-((1-(2-methylpyrimidin-5-yl)-1H-pyrazol-3-yl)oxy)phenyl)amino)-7-methoxyquinazolin-6-yl)amino)piperidin-1-yl)prop-2-en-1-one] | 60 to 100 | < 30 | < 30 | < 30 | 100 to 300
19 | C=CC(=O)N1CCC(Nc2cc3c(Nc4ccc(Oc5ccn(-c6ccc(C)c(F)n6)n5)cc4F)ncnc3cc2OC)CC1 [Example 93, 1-(4-((4-((2-fluoro-4-((1-(6-fluoro-5-methylpyridin-2-yl)-1H-pyrazol-3-yl)oxy)phenyl)amino)-7-methoxyquinazolin-6-yl)amino)piperidin-1-yl)prop-2-en-1-one] | 60 to 100 | 60 to 100 | 30 to 60 | 30 to 60 | ≥ 1000
